Measurements published in paper PMC10360169 (Frontiers in Immunology, 2023).

Columns and labels:
[1] = test system: Acar3; assay type: binding, great reed warbler Acrocephalus arundinaceus; conditions: for Stability T½ of Acar3 in complex with the peptide: Table S1, top 94 PSCPL-scoring peptides, SPA, 10µM peptide, 125I β2m, folding over night at 18°C, dissociation measured up to 24 hours at 37°C; for Stability T½ (h), peptide - Acar3: Table S5, half-life estimated from dissociation in scintillation proximity assay
[2] = target: HLA-B*15:01 (Homo sapiens, UniProt P01889, A329T/A93T/A95T/C349S/D201E/D98Y/E187L/E204Q/E69M/E70A/K202T/N87E/Q94N/R155S/R180W/S121R/S35A/S48A/V306I/V36M/Y140S/Y91S); set-up: method as in ref [40]-[42] = [40]; 40 Rasmussen M Harndahl M Kristensen A Nielsen I Jorgensen K Stryhn A . Large Scale analysis of peptide - HLA-I stability . ( 2014 ). || [41]; 41 Harndahl M Lamberth K Justesen S Røder G Madsen M Nielsen M . Large Scale analysis of peptide-HLA class I interactions . ( 2007 ). || [42]; 42 Harndahl M Lamberth K Justesen S Røder G Madsen M Sylvester-Hvid C . Large Scale analysis of peptide-HLA class I interactions . ( 2006 ).; conditions: IEDB; threshold minimum affinity of 500 nM or minimum half-life of 1 h; ref [40]-[42]; cited from earlier work
[3] = test system: Acar19; assay type: binding, great reed warbler Acrocephalus arundinaceus; conditions: Table S5, half-life estimated from dissociation in scintillation proximity assay

| Sequence | Stability T½ (h), peptide - Acar19 [3] [h] | further results |
| --- | --- | --- |
| AMSAQAAAF [P1] |  | Stability T½ of Acar3 in complex with the peptide [1]: 678 min; Stability T½ (h), peptide - Acar3 [1]: 11.3 h; binding to HLA-B*15:01 [2]: binds |
| DYQGLPLEF [9-mer peptide] | 3.5 | Stability T½ of Acar3 in complex with the peptide [1]: 12 min; Stability T½ (h), peptide - Acar3 [1]: 0.2 h |
| FFSPVIASL [9-mer peptide] | 0.9 |  |
| FSIMIYFTF [9-mer peptide] | 0.2 |  |
| FSPRLCRPF [9-mer peptide] | 0.4 |  |
| FWPQHFGLI [9-mer peptide] | 0.1 |  |
| FYPPVLQPI [9-mer peptide] | 0.3 |  |
| GFNKLRSTL [9-mer peptide] | 0.4 |  |
| GFPSLESSF [9-mer peptide] | 0.1 |  |
| GYAWIDFDI [9-mer peptide] | 0.2 |  |
| HAATNFREI [9-mer peptide] | 0.1 |  |
| HTAEIQQFF [9-mer peptide] | 0.3 |  |
| HYNAFHWAI [9-mer peptide] | 0.3 |  |
| HYNAFQWAI [9-mer peptide] | 0.3 |  |
| IAAPNMIAV [9-mer peptide] | 0.1 |  |
| IAASNLEQF [9-mer peptide] | 0.1 |  |
| IAKGIDAEF [9-mer peptide] | 0.1 |  |
| IALPVAWLF [9-mer peptide] | 0.1 |  |
| IANTTDHFF [9-mer peptide] | 0.2 |  |
| IASPILFPF [9-mer peptide] | 0.5 |  |
| IFDDLQGSL [9-mer peptide] | 0.1 |  |
| IFPSMYFLM [9-mer peptide] | 0.1 |  |
| IPAPGLGAL [9-mer peptide] | 0.2 |  |
| IPKYLEIEI [9-mer peptide] | 0.2 |  |
| IPNYLEIEI [9-mer peptide] | 0.6 |  |

| Sequence | Stability T½ (h), peptide - Acar19 [3] [h] | further results |
| --- | --- | --- |
| IQNALEKAL [9-mer peptide] | 0.1 |  |
| IQNATMDEF [9-mer peptide] | 0.1 |  |
| IQNEIMKPL [9-mer peptide] | 0.2 |  |
| IQNKLSSTF [9-mer peptide] | 0.2 |  |
| ISARGQELF [9-mer peptide] | 0.1 |  |
| ISASLAALF [9-mer peptide] | 0.1 |  |
| ISDPLTSGL [9-mer peptide] | 0.1 |  |
| ITAALAWSL [9-mer peptide] | 0.1 |  |
| ITDWLNFTL [9-mer peptide] | 0.1 |  |
| ITFHNQRDF [9-mer peptide] | 0.2 |  |
| IYAAISYMI [9-mer peptide] | 0.3 |  |
| IYGIFQSTF [9-mer peptide] | 0.1 |  |
| IYTVIYYIF [9-mer peptide] | 0.2 |  |
| IYYWTAWLI [9-mer peptide] | 0.2 |  |
| KASSAWHYF [9-mer peptide] | 0.2 |  |
| KDPENFDHF [9-mer peptide] | 0.2 |  |
| KFHQIEKEF [9-mer peptide] | 0.3 |  |
| KSNGAQQWL [9-mer peptide] | 0.1 |  |
| LAASVFFTF [9-mer peptide] | 0.2 |  |
| LFPELDCFF [9-mer peptide] | 1.6 |  |
| LMNELGVPF [9-mer peptide] | 0.6 |  |
| LRHSTAHLL [9-mer peptide] | 0.1 |  |
| LYIEILRLL [9-mer peptide] | 0.1 |  |
| LYPTFYCLF [9-mer peptide] | 0.4 |  |
| MAMGILHTI [9-mer peptide] | 0.1 |  |

| Sequence | Stability T½ (h), peptide - Acar19 [3] [h] | further results |
| --- | --- | --- |
| MFMMIFHFV [9-mer peptide] | 0.4 |  |
| MPARLWLCL [9-mer peptide] | 0.9 |  |
| MSNPLTSPI [9-mer peptide] | 6.3 |  |
| MYLRTIYDL [9-mer peptide] | 4.0 |  |
| MYMALIAAF [9-mer peptide] | 0.3 |  |
| NAFHHPSAV [9-mer peptide] | 0.1 |  |
| NHIRIEYII [9-mer peptide] | 0.4 |  |
| NPLEIYQEI [9-mer peptide] | 0.8 |  |
| NPSVLKILL [9-mer peptide] | 0.2 |  |
| NTARLMAGA [9-mer peptide] | 0.2 |  |
| NTDEIPELI [9-mer peptide] | 0.2 |  |
| NTFAAWLPM [9-mer peptide] | 0.6 |  |
| NVGRILGYV [9-mer peptide] | 0.5 |  |
| NYFNRMFHF [9-mer peptide] | 0.7 |  |
| NYMPYVFTL [9-mer peptide] | 14.9 |  |
| NYNGLLSSI [9-mer peptide] | 19.1 |  |
| QRASNVFDL [9-mer peptide] | 0.2 |  |
| QTSSIEGAW [9-mer peptide] | 0.1 |  |
| QYPAFVLFI [9-mer peptide] | 0.2 |  |
| RPAPATGAL [9-mer peptide] | 0.3 |  |
| SFHIIEWLF [9-mer peptide] | 0.2 |  |
| SFIPIFYQF [9-mer peptide] | 1.2 |  |
| STAPTGSWF [9-mer peptide] | 0.2 |  |
| STYGISEDL [9-mer peptide] | 0.1 |  |
| SYLGLTQPF [9-mer peptide] | 0.2 |  |

| Sequence | Stability T½ (h), peptide - Acar19 [3] [h] | further results |
| --- | --- | --- |
| SYLQAIGIL [9-mer peptide] | 0.1 |  |
| SYQALAFDI [9-mer peptide] | 0.5 |  |
| TFMGMNVQF [9-mer peptide] | 0.1 |  |
| TFMYVFSTF [9-mer peptide] | 0.2 |  |
| TNTQNNDWF [9-mer peptide] | 0.2 |  |
| TRAPAPFPL [9-mer peptide] | 0.1 | Stability T½ (h), peptide - Acar3 [1]: 0.1 h |
| TTLSIYFLL [9-mer peptide] | 0.1 |  |
| TYMFTHIDL [9-mer peptide] | 0.1 |  |
| TYSPALNKM [9-mer peptide] | 0.1 |  |
| VMKRNFIDF [9-mer peptide] | 0.1 |  |
| VQHNIKHSF [9-mer peptide] | 0.1 |  |
| VSFSMVGLF [9-mer peptide] | 0.1 |  |
| VTNRHEEKF [9-mer peptide] | 0.1 |  |
| WFGHLASDW [9-mer peptide] | 0.1 |  |
| WYAPVALLF [9-mer peptide] | 0.2 |  |
| YFDPANGKF [9-mer peptide] | 0.1 |  |
| YISPIFIPM [9-mer peptide] | 0.1 |  |
| YNAELLVAL [9-mer peptide] | 0.2 |  |
| YQAGISAAL [9-mer peptide] | 0.2 |  |
| YRSMIAFKL [9-mer peptide] | 0.1 |  |
| YTMELCGAM [9-mer peptide] | 0.1 |  |
| YTYPIAHTA [9-mer peptide] | 0.1 |  |
| YYNAFHWAI [9-mer peptide] | 0.4 |  |
| YYNAFQWAI [9-mer peptide] | 0.4 |  |
| YYSNKVFPI [9-mer peptide] | 0.2 |  |
